# Numbered stars: 1 amine (or outer) side, 2 acyl side, 3 side chain; on linkers, the order of the positions; unused ones are H or OH. Bridge positions count the residues as written; N and C are the ends. Square brackets hold non-standard residues; d marks the D form. Peptide text beside a SMILES is read from it. ξ: configuration not given here. ξαMeNle(6-ylidene) = CC(CCCC=[*:3])(N[*:1])C(=O)[*:2]; X1 = CC(CCCCCCC=[*:3])(N[*:1])C(=O)[*:2]
# Tests used:
# [1] = Stability test in human plasma, LC MS/MS; format: in vitro ADME; conditions: 37° C.
# Method: For the preparation of stock solutions, H14 was dissolved in water/acetonitrile (95/5, v/v) containing 0.1% formic acid to a concentration of 1.00 mg/mL. Further serial dilutions were carried out in plasma. The concentrations were calculated under consideration of purity.
# For preparation of plasma samples, the human blank plasma were fortified with the stock solution using a ratio of 1:100 to obtain a sample with 10.0 μg/mL which was subsequently serial-diluted in human blank plasma.
# A volume of 300 μL of human plasma samples for the two peptide concentrations (100 ng/mL and 1000 ng/mL) were transferred to an empty 96 deep well plate. The plate was incubated at 37° C. in a thermomixer at approximately 700 rpm. At selected incubation time points of 0 h, 1 h, 2 h, 4 h, 6 h and 24 h, aliquots of plasma were precipitated with acetonitrile containing internal standard. To an aliquot of 20 μL human plasma samples, 40 μL of acetonitrile containing 1% formic acid and the internal standard was added. After vortex mixing for a few seconds, the samples were centrifuged for about 10 minutes at approximately 50000 g. The temperature of the centrifuge was set to 8° C. An aliquot of 30 μL of the supernatant was transferred to an autosampler vial for analysis using LC MS/MS.
# The quantification of H14 was performed by column separation with reverse phase chromatography followed by detection with triple stage quadrupole MS/MS in the selected reaction monitoring mode.
# [2] = Hepatotoxicity assay, trypan blue exclusion, 24 h; format: cell-based; conditions: female, primary human hepatocytes, human hepatocytes, 24 h
# Excerpt: (§1) NCI-510A, epithelial (small cell lung cancer, SCLC), ATCC-HBT-124; and Hepatocytes (normal liver), from a donor was provided by Foundation DTI-Donation & Transplantation Institute from surgical wastes and from organs not suitable for transplantation
# (§2) Human liver from a donor was subjected to hepatocyte isolation by using a two-step tissue microperfusion technique taking maximum care to avoid anoxia before cannulation, since hepatocytes are cells highly sensitive to oxygen levels. An initial anoxic state could result in a low viability of the cells, and will later affect their metabolic capacity in the culture. Briefly, liver tissue was cannulated by using the accessible vessels with a 1 mm-diameter needle. A balanced salt solution was injected to clean the organ by using a peristaltic pump adjusted to a flow rate of 18-20 ml/min. After washing, a solution containing collagenase was added for liver disintegration. The cell suspension obtained using this process was filtered and centrifuged and, after a couple of washings to remove collagenase, cells were re-suspended in culture medium Ham's F-12/William (1:1) medium supplemented with 2 mM glutamine, […] sodium selenite, 2% newborn calf serum, 50 mU/ml penicillin, 50 μg/ml streptomycin, 0.1% bovine serum albumin, 1.68 mM NAME, 26 mM sodium bicarbonate, 25 μg/ml transferrin, 65.5 μM ethanolamine, 7.2 μM linoleic acid, 17.5 mM glucose, 6.14 mM ascorbic acid and 10 nM insulin.
# (§3) After resuspension, a cell aliquot was removed and viability was determined by cell counting using the trypan blue exclusion method. Trypan blue uptake is the result of cell membrane alteration and in consequence of cell death. Thus, to quantify cell viability, 0.4% trypan blue in saline was added to the cells and these were immediately loaded in a Neubauer chamber. Viable cells were counted in 5 different fields under the optical microscope as non-blue cells. % Viability=Number of non-blue cells×100/Number of total cells Viability and Hepatoxicity Assay
# (§4) Human hepatocytes isolated and re-suspended as described before were seeded at 100,000 viable cells/well on 96 collagen-coated plates in order to assess compound's cytotoxicity. After 1 hour in culture, medium was renewed to eliminate cell debris. Cultured human hepatocytes were allowed to stay in culture for 24 hours prior performing the experiments. After 24 h, the compounds to be tested were added to calculate the dose/response curve at the starting concentration of 400 μM with serial dilutions. Each experiment was performed in triplicate. Cells were incubated during 24 h in incubator under CO2 atmosphere at 37° C.
# (§5) The viability was determined by cell counting using the trypan blue exclusion method. % Viability=Number of non-blue cells×100/Number of total cells Statistics
# Human hepatocytes = test: Hepatotoxicity assay, trypan blue exclusion, 24 h; format: cell-based; conditions: dose of 4 and 14 μM
# Excerpt: as §1, §2, §3, §4, §5
smiles,measurement,setting,value
CC(C)C[C@H](NC(=O)[C@H](CCCCN)NC(=O)[C@@H](NC(=O)[C@@H](N)CCCNC(=N)N)C(C)C)C(=O)N[C@H](C(=O)N[C@@H](CC(N)=O)C(=O)N[C@@H](CC(C)C)C(=O)NC1(C)CCCCCCC=CCCCC(C)(C(=O)N[C@H](C(=O)N2CCC[C@H]2C(N)=O)C(C)C)NC(=O)[C@H](CCC(=O)O)NC(=O)[C@H](CCCNC(=N)N)NC(=O)[C@H](CC(C)C)NC(=O)[C@H]([C@@H](C)O)NC(=O)[C@H](C)NC(=O)[C@H](Cc2ccccc2)NC1=O)C(C)C (stereo partly drawn) [H14] (H-RVKLVNL[X1]FATLRE[ξαMeNle(6-ylidene)]VP-NH2; staple 8-15; N-terminus and C-terminus assumed),H14 amount (% peak area),"[1]; 100 ng/mL, 0 h",100 % peak area
same,"remaining at 1 h, 100 ng/mL","[1]; 100 ng/mL, 1 h, read-out: H14 amount (% peak area)",96.1%
same,H14 amount (% peak area),"[1]; 100 ng/mL, 2 h",96.1 % peak area
same,"remaining at 4 h, 100 ng/mL","[1]; 100 ng/mL, 4 h, read-out: H14 amount (% peak area)",102%
same,"remaining at 6 h, 100 ng/mL","[1]; 100 ng/mL, 6 h, read-out: H14 amount (% peak area)",97.2%
same,"remaining at 24 h, 100 ng/mL","[1]; 100 ng/mL, 24 h, read-out: H14 amount (% peak area)",108%
same,H14 amount (% peak area),"[1]; 1000 ng/mL, 0 h",100 % peak area
same,"remaining at 1 h, 1000 ng/mL","[1]; 1000 ng/mL, 1 h, read-out: H14 amount (% peak area)",101%
same,"remaining at 2 h, 1000 ng/mL","[1]; 1000 ng/mL, 2 h, read-out: H14 amount (% peak area)",94.9%
same,"remaining at 4 h, 1000 ng/mL","[1]; 1000 ng/mL, 4 h, read-out: H14 amount (% peak area)",95.4%
same,"remaining at 6 h, 1000 ng/mL","[1]; 1000 ng/mL, 6 h, read-out: H14 amount (% peak area)",99.9%
same,"remaining at 24 h, 1000 ng/mL","[1]; 1000 ng/mL, 24 h, read-out: H14 amount (% peak area)",101%
same,"viability at 24 h, 4 µM",[2]; H14 4 μM,113%
same,"viability at 24 h, 14 µM",[2]; H14 14 μM,119%
same,toxicity for normal hepatocytes (in words),Human hepatocytes,not toxic

# From patent US11440939B2, “Anticancer peptides” (IDP DISCOVERY PHARMA, S.L., priority 2017, dated 2022)
